Series [1] is described as follows: Toxicity tests for regulatory authorities. From the text:
PMD is the active ingredient in our MOSIGUARD™ insect repellant. We have conducted tests to show regulatory authorities that PMD is not toxic, and we have marketed our insect repellent for several years and there has been no report of any significant toxicity thereof. Potentially, therefore, the medical uses of PMD may be topical or systemic. Systemic administration may be by way of an oral dosage form or by a parenteral route, such as by intra-venous injection.

The subject of a further series is E. coli. Put plainly: Cis PMD MIC/MBC determination, broth dilution and sub-culture. Further details: key to bacterial growth: A “+” indicates bacterial growth; a “−” indicates that bacterial growth is prevented. In kind it is cell-based. The note with it: for bacterial growth: overnight 37° C. On the procedure:
MIC—minimum inhibitory concentration. This is the concentration of PMD which prevents bacterial growth. […] Thus, for E. Coli below, the minimum inhibitory concentration is 0.25% PMD in 1.25% ethanol.
MBC—minimum bactericidal concentration. This is the concentration of PMD which kills the bacteria. A “ ? ” indicates live bacteria are present.
Cis PMD was dissolved in Absolute Ethanol (0.2 g/ml) to give 20% solution. This was further diluted in water to give 10% in 50% EtOH. 200 μl was added to 0.8 ml Iso-sensitest broth to give a 2% solution in 10% EtOH. Serial 2-fold dilutions in ISB were then carried out and 20 μl E. coli (McFarlane 0.5) were added to each tube and incubated overnight at 37° C. After 18 hours, tubes showing no growth were sub-cultured.

Another series concerns acne. Put plainly: Effect against acne. From the text:
The etiology of acne is not completely understood, but, in some instances, it is believed that acne has a bacterial etiology.

The subject of the next series is certain strains of MRSA. Put plainly: Tests against MRSA. It counts as cell-based, Staphylococcus aureus. From the text:
In a further aspect, therefore, the invention provides the use of PMD against MRSA.

A short description of the next series: Solubility in water. It counts as physicochemical. The source says:
A composition for use in accordance with the invention can comprise PMD and a carrier.

In the next series the test system is P. aeruginosa. The series can be described thus: Cis PMD MIC/MBC determination, broth dilution and sub-culture. Further details: key: A “+” indicates bacterial growth; a “−” indicates that bacterial growth is prevented. In kind it is cell-based. The note with it: overnight 37° C. (In general: Broth dilution looks for growth in wells or tubes with falling amounts of substance.)

In the next series the test system is S. pyogenes. Described as above. It counts as cell-based. Further details: key: A “+” indicates bacterial growth; a “−” indicates that bacterial growth is prevented. The note with it: overnight 37° C.
The subject of the next series is S. aureus (oxford). The description is as above. It counts as cell-based. Further details: key: A “+” indicates bacterial growth; a “−” indicates that bacterial growth is prevented. Particulars: overnight 37° C.
The next series relates to MRSA 15. The description is as above. In kind it is cell-based, Staphylococcus aureus. Further details: key: A “+” indicates bacterial growth; a “−” indicates that bacterial growth is prevented. Particulars: overnight 37° C.
Another series relates to MRSA 16. Described as above. The note with it: overnight 37° C. In kind it is cell-based, Staphylococcus aureus. On the set-up: key: A “+” indicates bacterial growth; a “−” indicates that bacterial growth is prevented.

The text below walks through data of US7396547B2, “Antiseptic composition” (priority 1999, dated 2008).

SMILES strings stand for the structures.

As to `C[C@H]1CC[C@H](C(C)(C)O)[C@H](O)C1` (racemic) [PMD, p-menthane-3,8-diol], the toxicity entry in series [1] is reported as “not toxic”. The compound also displayed a minimum inhibitory concentration with E. coli (in 1.25% ethanol) of 0.25%. For the same compound, the minimum bactericidal concentration in the series on E. coli (in 2.5% ethanol) is 0.5%. Besides, in the series with acne, the effectiveness against acne result was “effective”. The “effectiveness against MRSA” value in the series on certain strains of MRSA is reported as “effective”. Further, the solubility in water result in “Solubility in water” is listed as “poorly soluble”.
For the compound `CC1CCC(C(C)(C)O)C(O)C1` (stereo not drawn) [Cis PMD], the bacterial growth entry with P. aeruginosa (0.06% PMD, 0.3% alcohol) was “+”; in the series with P. aeruginosa (0.125% PMD, 0.6% alcohol), “+”; with P. aeruginosa (0.25% PMD, 1.25% alcohol), “+”; with P. aeruginosa (0.5% PMD, 2.5% alcohol), “−”; with P. aeruginosa (1% PMD, 5% alcohol) it was “−”; with P. aeruginosa (2% PMD, 10% alcohol), “−”. Further, the bacterial growth entry is given as “+” in the series on S. pyogenes (0.06% PMD, 0.3% alcohol); “+” with S. pyogenes (0.125% PMD, 0.6% alcohol); “−” in the series on S. pyogenes (0.25% PMD, 1.25% alcohol); “−” in the series with S. pyogenes (0.5% PMD, 2.5% alcohol); “−” in the series on S. pyogenes (1% PMD, 5% alcohol); “−” in the series with S. pyogenes (2% PMD, 10% alcohol). Further, the bacterial growth result is reported as “+” with E. coli (0.06% PMD, 0.3% alcohol); “+” with E. coli (0.125% PMD, 0.6% alcohol); “−” in the series on E. coli (0.25% PMD, 1.25% alcohol); “−” with E. coli (0.5% PMD, 2.5% alcohol); “−” with E. coli (1% PMD, 5% alcohol); “−” with E. coli (2% PMD, 10% alcohol). Also, the bacterial growth entry in the series on S. aureus (oxford) (0.06% PMD, 0.3% alcohol) is reported as “+”; with S. aureus (oxford) (0.125% PMD, 0.6% alcohol), “+”; in the series on S. aureus (oxford) (0.25% PMD, 1.25% alcohol), “+”; in the series on S. aureus (oxford) (0.5% PMD, 2.5% alcohol) it was “−”; in the series on S. aureus (oxford) (1% PMD, 5% alcohol), “−”; in the series on S. aureus (oxford) (2% PMD, 10% alcohol), “−”. In addition, the bacterial growth entry with MRSA 15 (0.06% PMD, 0.3% alcohol) is “+”; in the series on MRSA 15 (0.125% PMD, 0.6% alcohol) it was “+”; with MRSA 15 (0.25% PMD, 1.25% alcohol), “+”; in the series on MRSA 15 (0.5% PMD, 2.5% alcohol), “−”; with MRSA 15 (2% PMD, 10% alcohol), “−”; with MRSA 16 (0.06% PMD, 0.3% alcohol), “+”. For the same compound, the bacterial growth entry in the series on MRSA 16 (0.125% PMD, 0.6% alcohol) is “+”; in the series with MRSA 16 (0.25% PMD, 1.25% alcohol), “+”; in the series with MRSA 16 (0.5% PMD, 2.5% alcohol) it was “−”; in the series on MRSA 16 (1% PMD, 5% alcohol), “−”; in the series on MRSA 16 (2% PMD, 10% alcohol), “−”.
